Measured values from patent US20230233576A1, “ECLITASERTIB FOR USE IN TREATING CONDITIONS INVOLVING SYSTEMIC HYPERINFLAMMATORY RESPONSE” (priority 2020, published 2023).

Experiments:
SIRS = experiment: acute mouse model of SIRS; type: in vivo
Description: The RIPK1 Inhibitor was studied in an acute mouse model of SIRS. […] There is also rationale that vascular permeability and endothelial dysfunction contribute to SIRS/shock and lethality. […] Additional clinical evidence for the role of RIPK1 in driving systemic inflammation comes from evidence in a rare population of patients that have a mutation in RIPK1 that blocks caspase-mediated cleavage and leads to hyperactivation of this kinase. These patients have periodic fevers with coinciding elevations of cytokines including IL-6 and elevated levels of pRIPK1 in their PBMCs. Patient-derived cells are responsive to RIPK1 kinase inhibition, and some patients are responsive to anti-IL-6 therapy.

[1] = tested on: adult participants hospitalized for severe COVID-19; experiment: Phase 1b severe COVID-19 study: ECG abnormalities (PCSA); type: in vivo, human; settings: for HR (bpm) Delta (change from baseline) / HR (bpm) Value / PR % change from baseline / PR (ms) Value / QRS % change from baseline / QRS (ms) Value / QT (ms) Delta (change from baseline) / QT (ms) Value / QTcB (ms) Delta (change from baseline) / QTcB (ms) Value / QTcF (ms) Delta (change from baseline) / QTcF (ms) Value: Discharge Before Day 15
Description: Physical examination including lung auscultation and assessment of consciousness, vital sign, electrocardiogram (ECG) parameters were measured per protocol.
For laboratory parameters (hematology, clinical chemistry, and urinalysis), vital signs, and ECG, incidences of potentially clinically significant abnormality (PCSA) values, actual values and change from baseline were summarized by treatment group.
For all laboratory, vital signs and ECG parameters, raw data and change from baseline were summarized in descriptive statistics by treatment group and scheduled time of measurement, with the exception of AST, ALT and alkaline phosphatase: instead of summarizing data in descriptive statistics, participants' profiles were presented through graphics by treatment group and with a color code to identify sites. The reason was that blood samples were processed by local laboratories with different normal ranges. For the rest of clinical laboratory these parameters it is reasonable to pool data as they are standard procedure and no significant differences in normal ranges were expected.

[2] = 600 mg (N = 47), TEAE period, safety population
[3] = individual participant 84.0 kg, 600 mg
[4] = individual participant 98.0 kg, 600 mg
[5] = individual participant 114.0 kg, 600 mg

## CN1C(=O)[C@@H](NC(=O)c2nnc(Cc3ccccc3)[nH]2)COc2cccnc21 [RIPK1 Inhibitor, (S)-5-benzyl-N-(5-methyl-4-oxo-2,3,4,5-tetrahydropyrido[3,2-b][1,4]oxazepin-3-yl)-4H-1,2,4-triazole-3-carboxamide]
SIRS
  SIRS induction: dose-dependently blocked and at the highest dose completely abolished
[1]; [2]
  ECG PCSA Heart Rate <40 beats/min: 0/44
  ECG PCSA Heart Rate <50 beats/min: 1/44
  ECG PCSA Heart Rate <50 beats/min and decrease from baseline ≥20 beats/min: 0/44
  ECG PCSA Heart Rate >100 beats/min: 3/44
  ECG PCSA Heart Rate >100 beats/min and increase from baseline ≥20 beats/min: 3/44
  ECG PCSA Heart Rate >120 beats/min: 1/44
  ECG PCSA Heart Rate >120 beats/min and increase from baseline 20 beats/min: 1/44
  ECG PCSA Heart rate>90 beats/min: 6/44
  ECG PCSA PR Interval >200 msec: 1/43
  ECG PCSA PR Interval >200 msec and increase from baseline ≥25%: 0/43
  ECG PCSA PR Interval >220 msec: 1/43
  ECG PCSA PR Interval >220 msec and increase from baseline ≥25%: 0/43
  ECG PCSA PR Interval >240 msec: 0/43
  ECG PCSA QRS Interval >110 msec: 6/44
  ECG PCSA QRS Interval >110 msec and increase from baseline ≥25%: 3/44
  ECG PCSA QRS Interval >120 msec: 3/44
  ECG PCSA QRS Interval >120 msec and increase from baseline ≥25%: 2/44
  ECG PCSA QT Interval >500 msec: 0/44
  ECG PCSA QTc Bazett - change from baseline: Increase from baseline >60 msec: 5/39
  ECG PCSA QTc Bazett - change from baseline: Increase from baseline ]30-60] msec: 2/39
  ECG PCSA QTc Bazett >450 msec: 5/44
  ECG PCSA QTc Bazett >500 msec: 3/44
  ECG PCSA QTc Bazett>480 msec: 3/44
  ECG PCSA QTc Fridericia - change from baseline: Increase from baseline >60 msec: 2/25
  ECG PCSA QTc Fridericia - change from baseline: Increase from baseline ]30-60] msec: 2/25
  ECG PCSA QTc Fridericia >450 msec: 1/29
  ECG PCSA QTc Fridericia >480 msec: 1/29
  ECG PCSA QTc Fridericia >500 msec: 0/29
  ECG PCSA heart rate>90 beats/min and increase from baseline≥20 beats/min: 5/44
[1]; 600 mg, TEAE period
  ECG PCSA Heart rate>90 beats/min: 6 participants
  ECG PCSA QRS interval>110 ms: 6 participants
  ECG PCSA QTc Bazett (QTcB)>450 ms: 5 participants
  ECG PCSA QTc Bazett change from baseline>60 ms: 5 participants
  ECG PCSA QTc Bazett>480 msec: 3 participants
  ECG PCSA QTc Bazett>500 ms: 3 participants
  ECG PCSA heart rate>90 beats/min and increase from baseline≥20 beats/min: 5 participants
[1]; [3]
  HR (bpm) Delta (change from baseline): −5 bpm
  HR (bpm) Value: 73 bpm
  PR % change from baseline: 0.0%
  PR (ms) Value: 120 ms
  QRS % change from baseline: 5.0%
  QRS (ms) Value: 84 ms
  QT (ms) Delta (change from baseline): 0 ms
  QT (ms) Value: 380 ms
  QTcB (ms) Delta (change from baseline): 69 ++ ms
  QTcB (ms) Value: 449 ms
  QTcF (ms) Delta (change from baseline): -34 ms
  QTcF (ms) Value: 380 ms
[1]; [4]
  HR (bpm) Delta (change from baseline): −1 bpm
  HR (bpm) Value: 81 bpm
  PR % change from baseline: 12.3%
  PR (ms) Value: 164 ms
  QRS % change from baseline: −14%
  QRS (ms) Value: 95 ms
  QT (ms) Delta (change from baseline): -3 ms
  QT (ms) Value: 371 ms
  QTcB (ms) Delta (change from baseline): 84 ++ ms
  QTcB (ms) Value: 431 ms
  QTcF (ms) Delta (change from baseline): -5 ms
  QTcF (ms) Value: 410 ms
[1]; [5]
  HR (bpm) Delta (change from baseline): 38 + bpm
  HR (bpm) Value: 96 + bpm
  PR % change from baseline: −11%
  PR (ms) Value: 160 ms
  QRS % change from baseline: −20%
  QRS (ms) Value: 80 ms
  QT (ms) Delta (change from baseline): -30 ms
  QT (ms) Value: 360 ms
  QTcB (ms) Delta (change from baseline): 72 ++ ms
  QTcB (ms) Value: 455 + ms
  QTcF (ms) Delta (change from baseline): 36 + ms
  QTcF (ms) Value: 421 ms
